Measurements reported in paper PMC6407917, “Identification of GSK3186899/DDD853651 as a Preclinical Development Candidate for the Treatment of Visceral Leishmaniasis” (Journal of Medicinal Chemistry, 2018).

Columns and labels:
Assay in all cases: biochemical
Set-up in all cases: species or system HEK293/K-562/placenta mixed human extract; Kinobeads chemoproteomic competition binding, quantified by TMT LC-MS/MS, dose response up to 20 uM
PKN3 = PKN3 (Homo sapiens, UniProt Q6P5Z2)
LCK = LCK (Homo sapiens, UniProt P06239)
TBK1 = TBK1 (Homo sapiens, UniProt Q9UHD2)
NEK9 = NEK9 (Homo sapiens, UniProt Q8TD19)
Sequence of NEK9 (Q8TD19 whole entry): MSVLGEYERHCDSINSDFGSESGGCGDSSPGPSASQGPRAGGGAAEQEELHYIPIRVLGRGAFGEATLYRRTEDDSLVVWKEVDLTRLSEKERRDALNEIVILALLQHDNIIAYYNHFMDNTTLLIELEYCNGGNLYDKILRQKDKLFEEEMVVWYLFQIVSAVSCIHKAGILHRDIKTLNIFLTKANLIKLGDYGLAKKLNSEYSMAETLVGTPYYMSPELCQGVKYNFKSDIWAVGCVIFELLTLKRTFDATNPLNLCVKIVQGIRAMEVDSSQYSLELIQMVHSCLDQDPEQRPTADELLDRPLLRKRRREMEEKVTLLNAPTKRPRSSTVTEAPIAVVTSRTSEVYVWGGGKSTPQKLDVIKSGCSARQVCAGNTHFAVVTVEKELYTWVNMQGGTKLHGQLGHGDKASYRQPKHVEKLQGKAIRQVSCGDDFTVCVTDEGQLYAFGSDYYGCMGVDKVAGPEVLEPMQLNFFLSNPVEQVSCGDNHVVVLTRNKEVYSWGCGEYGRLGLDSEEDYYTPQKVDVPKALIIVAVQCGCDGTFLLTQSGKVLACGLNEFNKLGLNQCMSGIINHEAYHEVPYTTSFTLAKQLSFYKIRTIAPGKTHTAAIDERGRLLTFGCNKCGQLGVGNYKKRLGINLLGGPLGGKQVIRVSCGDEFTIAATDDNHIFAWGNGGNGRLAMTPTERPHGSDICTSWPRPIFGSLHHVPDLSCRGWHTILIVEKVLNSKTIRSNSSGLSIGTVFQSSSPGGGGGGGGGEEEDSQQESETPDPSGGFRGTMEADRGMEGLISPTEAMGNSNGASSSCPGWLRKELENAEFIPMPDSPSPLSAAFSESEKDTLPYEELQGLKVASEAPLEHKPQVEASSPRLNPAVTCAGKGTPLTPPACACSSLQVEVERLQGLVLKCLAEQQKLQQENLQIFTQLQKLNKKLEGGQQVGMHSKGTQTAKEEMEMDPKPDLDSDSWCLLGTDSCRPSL

FER = FER (Homo sapiens, UniProt P16591)
PFKL = PFKL (Homo sapiens, UniProt P17858)
MARK3 = MARK3 (Homo sapiens, UniProt P27448)
BMP2K = BMP2K (Homo sapiens, UniProt Q9NSY1)
Sequence of BMP2K (Q9NSY1 whole entry): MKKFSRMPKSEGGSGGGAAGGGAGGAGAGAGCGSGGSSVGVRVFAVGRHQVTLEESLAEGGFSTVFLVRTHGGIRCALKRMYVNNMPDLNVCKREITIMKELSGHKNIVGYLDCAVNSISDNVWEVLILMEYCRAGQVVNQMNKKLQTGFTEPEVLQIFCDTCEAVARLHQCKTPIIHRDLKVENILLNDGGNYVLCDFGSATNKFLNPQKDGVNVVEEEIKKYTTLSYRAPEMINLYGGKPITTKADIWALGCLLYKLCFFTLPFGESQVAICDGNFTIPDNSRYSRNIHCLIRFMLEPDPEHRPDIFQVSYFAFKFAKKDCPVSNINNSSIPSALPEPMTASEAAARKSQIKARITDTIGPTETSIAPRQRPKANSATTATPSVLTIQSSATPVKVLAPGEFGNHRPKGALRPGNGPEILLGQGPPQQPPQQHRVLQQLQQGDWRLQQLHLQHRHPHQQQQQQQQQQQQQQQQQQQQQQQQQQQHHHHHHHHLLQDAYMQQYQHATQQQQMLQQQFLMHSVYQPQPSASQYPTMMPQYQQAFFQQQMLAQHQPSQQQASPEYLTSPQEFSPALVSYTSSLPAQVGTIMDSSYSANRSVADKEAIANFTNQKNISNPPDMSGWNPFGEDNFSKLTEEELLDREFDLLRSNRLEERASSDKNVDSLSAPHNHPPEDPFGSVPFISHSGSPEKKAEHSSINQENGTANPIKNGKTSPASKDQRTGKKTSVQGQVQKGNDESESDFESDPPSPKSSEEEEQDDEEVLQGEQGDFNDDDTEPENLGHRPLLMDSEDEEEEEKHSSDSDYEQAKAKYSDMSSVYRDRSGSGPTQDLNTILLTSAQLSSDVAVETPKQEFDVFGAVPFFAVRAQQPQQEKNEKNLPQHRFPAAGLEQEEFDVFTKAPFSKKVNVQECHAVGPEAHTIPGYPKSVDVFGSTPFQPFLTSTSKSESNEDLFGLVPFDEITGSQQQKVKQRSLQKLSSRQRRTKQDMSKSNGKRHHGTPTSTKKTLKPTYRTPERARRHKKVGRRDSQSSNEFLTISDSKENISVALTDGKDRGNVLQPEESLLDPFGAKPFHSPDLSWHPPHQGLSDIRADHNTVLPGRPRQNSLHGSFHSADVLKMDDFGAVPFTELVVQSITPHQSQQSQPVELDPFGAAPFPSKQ

AZI2 = AZI2 (Homo sapiens, UniProt Q9H6S1)
Sequence of AZI2 (Q9H6S1 whole entry): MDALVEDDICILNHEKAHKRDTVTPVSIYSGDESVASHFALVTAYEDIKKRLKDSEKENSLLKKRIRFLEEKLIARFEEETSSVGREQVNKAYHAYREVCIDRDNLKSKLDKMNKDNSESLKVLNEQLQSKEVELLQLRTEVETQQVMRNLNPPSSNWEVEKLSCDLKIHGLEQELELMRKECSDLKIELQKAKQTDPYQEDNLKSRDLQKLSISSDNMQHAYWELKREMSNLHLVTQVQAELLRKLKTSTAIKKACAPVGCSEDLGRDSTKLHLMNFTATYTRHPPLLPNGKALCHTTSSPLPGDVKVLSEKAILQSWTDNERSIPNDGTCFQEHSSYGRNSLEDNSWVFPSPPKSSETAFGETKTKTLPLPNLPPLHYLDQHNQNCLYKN

EPHA3 = EPHA3 (Homo sapiens, UniProt P29320)
CDK5 = CDK5 (Homo sapiens, UniProt Q00535)
LIMK1 = LIMK1 (Homo sapiens, UniProt P53667)
IRAK3 = IRAK3 (Homo sapiens, UniProt Q9Y616)
MAPKAPK5 = MAPKAPK5 (Homo sapiens, UniProt Q8IW41)
GSK3A = GSK3A (Homo sapiens, UniProt P49840)
Sequence of GSK3A (P49840 whole entry): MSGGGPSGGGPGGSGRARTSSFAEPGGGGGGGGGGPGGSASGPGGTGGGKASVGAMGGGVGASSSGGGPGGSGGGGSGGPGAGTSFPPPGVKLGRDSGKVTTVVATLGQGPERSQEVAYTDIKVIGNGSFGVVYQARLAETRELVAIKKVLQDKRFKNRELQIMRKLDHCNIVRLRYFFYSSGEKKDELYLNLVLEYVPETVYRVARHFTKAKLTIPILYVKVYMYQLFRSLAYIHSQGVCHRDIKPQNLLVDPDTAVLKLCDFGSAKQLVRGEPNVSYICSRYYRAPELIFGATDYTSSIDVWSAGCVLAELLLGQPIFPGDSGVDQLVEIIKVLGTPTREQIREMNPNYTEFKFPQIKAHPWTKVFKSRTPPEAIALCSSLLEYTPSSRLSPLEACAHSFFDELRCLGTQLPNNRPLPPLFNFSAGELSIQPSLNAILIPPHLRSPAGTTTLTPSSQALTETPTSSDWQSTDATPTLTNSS

PRKCA = PRKCA (Homo sapiens, UniProt P17252)
PIM3 = PIM3 (Homo sapiens, UniProt Q86V86)
MERTK = MERTK (Homo sapiens, UniProt Q12866)
MAPK8 = MAPK8 (Homo sapiens, UniProt P45983)
SERPINB2 = SERPINB2 (Homo sapiens, UniProt P05120)
EPHB3 = EPHB3 (Homo sapiens, UniProt P54753)

Sequence of PKN3 (Q6P5Z2 whole entry): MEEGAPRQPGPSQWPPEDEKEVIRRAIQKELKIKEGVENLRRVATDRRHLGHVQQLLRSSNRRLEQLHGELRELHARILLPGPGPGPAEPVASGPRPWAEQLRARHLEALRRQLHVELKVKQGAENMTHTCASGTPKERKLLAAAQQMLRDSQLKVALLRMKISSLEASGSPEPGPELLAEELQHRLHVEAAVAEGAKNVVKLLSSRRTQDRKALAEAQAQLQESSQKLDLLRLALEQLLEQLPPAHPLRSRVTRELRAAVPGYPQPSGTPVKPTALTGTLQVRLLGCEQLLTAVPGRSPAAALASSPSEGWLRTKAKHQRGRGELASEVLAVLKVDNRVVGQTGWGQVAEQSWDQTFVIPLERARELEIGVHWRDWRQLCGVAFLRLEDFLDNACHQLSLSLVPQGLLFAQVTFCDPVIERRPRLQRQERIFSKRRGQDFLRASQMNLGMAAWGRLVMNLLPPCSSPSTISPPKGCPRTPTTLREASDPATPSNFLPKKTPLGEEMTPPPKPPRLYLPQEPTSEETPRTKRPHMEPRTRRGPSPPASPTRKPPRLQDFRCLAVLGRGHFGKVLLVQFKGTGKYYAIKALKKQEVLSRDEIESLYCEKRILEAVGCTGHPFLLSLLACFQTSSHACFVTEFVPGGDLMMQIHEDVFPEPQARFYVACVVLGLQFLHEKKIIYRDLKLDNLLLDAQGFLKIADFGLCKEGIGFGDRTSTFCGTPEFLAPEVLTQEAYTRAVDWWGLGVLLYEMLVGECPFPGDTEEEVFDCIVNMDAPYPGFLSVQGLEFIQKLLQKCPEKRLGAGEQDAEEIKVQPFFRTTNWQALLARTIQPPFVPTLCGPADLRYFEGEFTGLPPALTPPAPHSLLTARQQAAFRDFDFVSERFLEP

- IC50 (PKN3): ≥ 20 µM
- IC50 (LCK): ≥ 20 µM
- IC50 (TBK1): ≥ 20 µM
- IC50 (FER): ≥ 20 µM
- IC50 (PFKL): ≥ 20 µM
- IC50 (MARK3): ≥ 20 µM
- IC50 (BMP2K): ≥ 20 µM
- IC50 (AZI2): ≥ 20 µM
- IC50 (EPHA3): ≥ 20 µM
- IC50 (CDK5): 1.2 µM
- IC50 (LIMK1): ≥ 20 µM
- IC50 (IRAK3): ≥ 20 µM
- IC50 (MAPKAPK5): 3 µM
- IC50 (GSK3A): ≥ 20 µM
- IC50 (PRKCA): ≥ 20 µM
- IC50 (PIM3): ≥ 20 µM
- IC50 (MERTK): ≥ 20 µM
- IC50 (MAPK8): ≥ 20 µM
- IC50 (SERPINB2): ≥ 20 µM
- IC50 (EPHB3): ≥ 20 µM
Compound: COc1ccccc1-c1n[nH]c2nc(N[C@H]3CC[C@H](NS(=O)(=O)CCC(F)(F)F)CC3)nc(OC)c12 [compound 31, 3,3,3-Trifluoro-N-(trans-4-((4-methoxy-3-(2-methoxyphenyl)-1H-pyrazolo[3,4-d]pyrimidin-6-yl)amino)cyclohexyl)propane-1-sulfonamide]
- IC50 (NEK9): ≥ 20 µM
